In the assay the target is T1, DC-SIGN (Homo sapiens, UniProt Q9NNX6).
T1 construct: host or cells: B-THP-1 (Raji B) cells, DC-SIGN+
T1 sequence (Q9NNX6 1-404): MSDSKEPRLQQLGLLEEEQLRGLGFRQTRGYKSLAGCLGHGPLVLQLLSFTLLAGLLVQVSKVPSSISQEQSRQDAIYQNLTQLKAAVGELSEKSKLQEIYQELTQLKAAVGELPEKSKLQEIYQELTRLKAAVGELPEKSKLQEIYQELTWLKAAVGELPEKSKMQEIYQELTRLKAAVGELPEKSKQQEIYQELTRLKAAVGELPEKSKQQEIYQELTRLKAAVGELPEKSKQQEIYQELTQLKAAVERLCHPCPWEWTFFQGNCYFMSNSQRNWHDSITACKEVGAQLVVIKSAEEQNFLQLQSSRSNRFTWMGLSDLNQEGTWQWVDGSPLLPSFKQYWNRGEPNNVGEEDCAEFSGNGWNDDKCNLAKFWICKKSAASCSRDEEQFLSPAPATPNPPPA
Put plainly: cell-based.

The source of these data is patent EP3981777A1, “ANTIVIRAL COMPOUNDS AND POLYMERS” (priority 2020, dated 2022).

In turn, `CO[C@H]1O[C@H](CO)[C@@H](O)[C@H](O)[C@@H]1O` [MeMan, methyl α-D-mannoside] yielded an IC50 of 6.5 mM.
